# Measurements from ChEMBL document CHEMBL4229522, “Inhibition of the LOX enzyme family members with old and new ligands. Selectivity analysis revisited” (Bioorg Med Chem Lett, 2018).
# Experiments:
# Protein-lysine 6-oxidase = target: T1, Protein-lysine 6-oxidase (Homo sapiens, UniProt P28300); assay: Inhibition of recombinant human LOX expressed in HEK293 cells using diaminopentane as substrate preincubated for 30 mins followed by substrate addition measured after 1 hr by fluorimetric method; type: cell-based
# T1 sequence (P28300 whole entry): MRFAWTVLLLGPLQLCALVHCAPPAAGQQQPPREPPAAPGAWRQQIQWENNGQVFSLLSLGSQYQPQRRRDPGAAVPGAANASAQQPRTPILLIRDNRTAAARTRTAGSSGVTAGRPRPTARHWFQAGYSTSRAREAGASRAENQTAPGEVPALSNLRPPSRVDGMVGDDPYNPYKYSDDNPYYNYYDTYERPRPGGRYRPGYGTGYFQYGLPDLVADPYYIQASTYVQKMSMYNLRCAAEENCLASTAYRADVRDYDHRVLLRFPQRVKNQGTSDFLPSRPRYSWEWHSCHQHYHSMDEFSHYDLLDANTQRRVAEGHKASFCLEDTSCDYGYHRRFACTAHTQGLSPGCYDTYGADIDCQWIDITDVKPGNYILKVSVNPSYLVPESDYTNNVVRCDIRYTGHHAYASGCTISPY
# [1] = target: T2, Lysyl oxidase homolog 4 (Homo sapiens) (UniProt Q96JB6); assay: Inhibition of recombinant human LOXL4 expressed in baculovirus infected insect cells at 10 uM using diaminopentane as substrate preincubated for 30 mins followed by substrate addition measured after 1 hr by fluorimetric method relative to control
# T2 sequence (whole entry): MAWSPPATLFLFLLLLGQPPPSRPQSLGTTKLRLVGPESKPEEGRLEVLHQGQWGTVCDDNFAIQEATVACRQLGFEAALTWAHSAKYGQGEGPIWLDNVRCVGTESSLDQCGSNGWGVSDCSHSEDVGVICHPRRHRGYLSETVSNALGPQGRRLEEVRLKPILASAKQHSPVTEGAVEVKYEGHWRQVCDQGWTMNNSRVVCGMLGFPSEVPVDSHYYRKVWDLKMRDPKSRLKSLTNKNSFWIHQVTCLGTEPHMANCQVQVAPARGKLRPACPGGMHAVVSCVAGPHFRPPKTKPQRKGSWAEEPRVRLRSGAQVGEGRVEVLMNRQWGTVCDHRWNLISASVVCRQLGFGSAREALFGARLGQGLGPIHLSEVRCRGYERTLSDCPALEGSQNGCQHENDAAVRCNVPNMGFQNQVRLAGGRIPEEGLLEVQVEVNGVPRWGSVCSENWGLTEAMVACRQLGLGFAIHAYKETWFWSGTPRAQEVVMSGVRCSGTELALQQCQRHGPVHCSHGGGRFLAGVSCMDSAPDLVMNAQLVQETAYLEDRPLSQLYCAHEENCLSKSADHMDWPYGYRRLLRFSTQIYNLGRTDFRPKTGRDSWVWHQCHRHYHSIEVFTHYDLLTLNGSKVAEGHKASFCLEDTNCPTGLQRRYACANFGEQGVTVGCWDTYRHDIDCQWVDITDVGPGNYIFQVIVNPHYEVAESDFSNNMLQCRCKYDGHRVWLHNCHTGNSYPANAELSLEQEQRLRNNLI
# Lysyl oxidase homolog 4 = target: T3, Lysyl oxidase homolog 4 (Homo sapiens, UniProt Q96JB6); assay: Inhibition of recombinant human LOXL4 expressed in baculovirus infected insect cells using diaminopentane as substrate preincubated for 30 mins followed by substrate addition measured after 1 hr by fluorimetric method
# T3 sequence (Q96JB6 whole entry): T2 sequence (whole entry)
# [2] = target: T4, Lysyl oxidase homolog 2 (Homo sapiens) (UniProt Q9Y4K0); assay: Inhibition of recombinant LOXL2 (unknown origin) expressed in NS0 cells at 10 uM using diaminopentane as substrate preincubated for 30 mins followed by substrate addition measured after 1 hr by fluorimetric method relative to control
# T4 sequence (whole entry): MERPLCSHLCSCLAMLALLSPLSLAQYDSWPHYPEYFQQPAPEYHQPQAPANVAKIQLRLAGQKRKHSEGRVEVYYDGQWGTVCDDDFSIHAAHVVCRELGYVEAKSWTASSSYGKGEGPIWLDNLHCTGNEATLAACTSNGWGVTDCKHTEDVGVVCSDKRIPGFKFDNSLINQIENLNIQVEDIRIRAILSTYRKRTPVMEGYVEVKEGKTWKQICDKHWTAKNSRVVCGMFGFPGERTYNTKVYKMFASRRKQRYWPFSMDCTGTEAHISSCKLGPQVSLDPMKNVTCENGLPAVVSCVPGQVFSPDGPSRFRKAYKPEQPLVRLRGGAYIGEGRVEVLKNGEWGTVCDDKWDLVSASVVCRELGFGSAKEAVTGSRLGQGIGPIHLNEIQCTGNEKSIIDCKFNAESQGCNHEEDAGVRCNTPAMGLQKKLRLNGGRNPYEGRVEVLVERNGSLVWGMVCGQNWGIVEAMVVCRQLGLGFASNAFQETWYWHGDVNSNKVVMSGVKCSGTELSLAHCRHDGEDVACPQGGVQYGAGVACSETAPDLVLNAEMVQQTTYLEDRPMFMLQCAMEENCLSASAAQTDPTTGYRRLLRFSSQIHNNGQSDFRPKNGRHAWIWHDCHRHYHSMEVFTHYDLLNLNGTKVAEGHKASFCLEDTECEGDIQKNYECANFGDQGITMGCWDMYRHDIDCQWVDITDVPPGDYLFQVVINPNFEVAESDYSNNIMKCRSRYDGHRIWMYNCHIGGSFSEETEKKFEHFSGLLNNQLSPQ
# Lysyl oxidase homolog 3 = target: T5, Lysyl oxidase homolog 3 (Homo sapiens, UniProt P58215); assay: Inhibition of recombinant human LOXL3 expressed in CHO cells using diaminopentane as substrate preincubated for 30 mins followed by substrate addition measured after 1 hr by fluorimetric method
# T5 sequence (P58215 whole entry): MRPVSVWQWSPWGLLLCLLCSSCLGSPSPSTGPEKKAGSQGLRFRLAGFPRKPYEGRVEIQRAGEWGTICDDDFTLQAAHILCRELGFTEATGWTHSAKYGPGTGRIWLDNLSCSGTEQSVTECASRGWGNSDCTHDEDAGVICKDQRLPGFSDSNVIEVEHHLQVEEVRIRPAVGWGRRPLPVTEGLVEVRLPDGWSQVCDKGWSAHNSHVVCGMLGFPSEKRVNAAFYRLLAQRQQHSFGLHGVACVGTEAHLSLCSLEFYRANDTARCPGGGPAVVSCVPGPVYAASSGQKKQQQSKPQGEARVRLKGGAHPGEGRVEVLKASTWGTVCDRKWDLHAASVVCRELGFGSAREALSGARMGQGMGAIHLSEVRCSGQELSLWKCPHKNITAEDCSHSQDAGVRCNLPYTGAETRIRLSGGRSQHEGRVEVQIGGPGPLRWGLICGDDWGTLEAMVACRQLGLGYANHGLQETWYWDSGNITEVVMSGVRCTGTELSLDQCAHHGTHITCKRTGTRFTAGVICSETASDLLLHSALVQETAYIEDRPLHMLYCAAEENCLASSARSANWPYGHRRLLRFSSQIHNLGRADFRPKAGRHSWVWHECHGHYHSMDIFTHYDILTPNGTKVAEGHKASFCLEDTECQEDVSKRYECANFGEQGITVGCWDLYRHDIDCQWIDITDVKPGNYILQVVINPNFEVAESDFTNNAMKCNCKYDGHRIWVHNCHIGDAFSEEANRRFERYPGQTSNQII
# Lysyl oxidase homolog 2 = target: T6, Lysyl oxidase homolog 2 (Homo sapiens, UniProt Q9Y4K0); assay: Inhibition of recombinant LOXL2 (unknown origin) expressed in NS0 cells using diaminopentane as substrate preincubated for 30 mins followed by substrate addition measured after 1 hr by fluorimetric method
# T6 sequence (Q9Y4K0 whole entry): T4 sequence (whole entry)
Compound,IC50 (Protein-lysine 6-oxidase),inhibition [1],IC50 (Lysyl oxidase homolog 4),inhibition [2],IC50 (Lysyl oxidase homolog 3),IC50 (Lysyl oxidase homolog 2)
CN(C)C(=S)SSC(=S)N(C)C [THIRAM],1.04 µM,< 40%,0.18 µM,< 40%,0.11 µM,0.17 µM
CC(C)(C)C1=NN(c2ccccc2)C(=O)C1,75 µM,< 40%,> 100 µM,< 40%,> 100 µM,> 100 µM
O=c1c2cccnc2[nH]c(=S)n1-c1ccccc1,> 100 µM,< 40%,> 100 µM,< 40%,18 µM,75 µM
CCN1/C(=C2\C(=O)N(c3ccccc3)N=C2Nc2ccccc2)C=Cc2ccccc21,,< 40%,> 100 µM,< 40%,,1 µM
O=c1c2ccc(-c3cccs3)nc2[nH]n1-c1ccccc1,> 100 µM,< 40%,> 100 µM,< 40%,,7.8 µM
Cc1cc(-c2ccc3c(=O)n(-c4ccccc4)[nH]c3n2)c(C)o1,,< 40%,55 µM,< 40%,,3.8 µM
CC1=NN(c2ccccc2)C(=O)/C1=C/NNc1nnc(C)c(O)n1,,< 40%,> 100 µM,< 40%,,34 µM
Cc1cc(C)c2c(=O)n(-c3ccccc3)[nH]c2n1,35 µM,< 40%,> 100 µM,< 40%,> 100 µM,25 µM
[O-][n+]1ccccc1S [PYRITHIONE],33 µM,< 40%,15 µM,< 40%,12 µM,18 µM
N#CCCN,> 100 µM,< 40%,> 100 µM,,0.17 µM,0.073 µM
COc1ccccc1-c1cc(=O)c2c(=O)n(-c3ccccc3)[nH]c2[nH]1,,< 40%,> 100 µM,< 40%,,45 µM
CCOC(=O)c1sc(N/N=C2\C(=O)N(c3ccccc3)N=C2N)c(C(=O)OCC)c1C,,< 40%,3.3 µM,< 40%,> 100 µM,> 100 µM
CCN(CC)C(=S)SSC(=S)N(CC)CC [DISULFIRAM],0.32 µM,< 40%,0.059 µM,< 40%,0.093 µM,0.15 µM
CC1=NN(c2ccccc2)C(=O)C1C (stereo not drawn),2.6 µM,< 40%,2.1 µM,< 40%,1.3 µM,2.1 µM
